Publication PMC5358776, “Insight into the mechanism of action of temporin-SHa, a new broad-spectrum antiparasitic and antibacterial agent” (PLoS ONE, 2017)
Converted amounts (≈) assume the structure as drawn. Read-outs that look alike come from different tables or passages of the source. Where no end group is shown, it is not given here.

Assays:
E. coli ML-35p = conditions: MH broth, 10^6 cfu/ml; mean of 3 independent experiments in triplicate
Experimental: (§1) Listeria ivanovii Li4pVS2 (kindly provided by Jean-Marc Berjeaud, Université de Poitiers, France), and Streptococcus pyogenes ATCC 19615 (ATCC) were cultured in brain heart infusion (BHI, Sigma-Aldrich) medium under the same conditions.
(§2) Activity against bacteria and yeasts was assessed with a liquid growth inhibition assay performed in 96-well microtitration plates, according to a previously described protocol [14], using mid-logarithmic phase cultures diluted in Mueller-Hinton (MH, Dominique Dutscher) broth (LB broth for E. faecalis strain and YPD medium for yeasts/fungi) to an A630 value of 0.01 (10^6 cfu/ml) and 2-fold serial dilutions of synthetic temporin (200–1 μM, final concentrations). The minimal inhibitory concentration (MIC) was determined as the mean value of three independent experiments, each performed in triplicate with negative (H2O) and positive (0.7% formaldehyde) controls.

S. cerevisiae = conditions: 96 h
Experimental: (§3) Candida albicans ATCC 90028, Candida parapsilosis ATCC 22019 (ATCC), and Saccharomyces cerevisiae (laboratory collection) were cultured in yeast peptone dextrose (YPD, Sigma-Aldrich) medium at 30°C.
(§4) The minimal inhibitory concentration (MIC) was determined as the mean value of three independent experiments, each performed in triplicate with negative (H2O) and positive (0.7% formaldehyde) controls.

[1] = test system: S. enterica (serotype Enteritidis); conditions: serotype Enteritidis
Experimental: as §2

E. faecalis ATCC 29212 = conditions: ATCC 29212
Experimental: as §1, §2

A. baumannii ATCC 19606 = conditions: ATCC 19606
Experimental: as §2

[2] = test system: Gram-negative and Gram-positive bacteria and yeasts/fungi; assay: MIC, whole panel of strains; type: cell-based; conditions: against all strains
S. aureus ATCC 25923 = conditions: ATCC 25923
Experimental: as §2

Rat erythrocytes = conditions: 1 h
Experimental: (§5) Hemolytic assays were also performed using erythrocytes obtained from fresh blood samples of Wistar male rats (Charles River Laboratories, France). The hemolytic activity was measured by incubating the peptide (1–200 μM, final concentrations) with erythrocytes (2 x 10^7 cells) in PBS (100 μl) for 1 h at 37°C, as previously described [23]. A parallel incubation in the presence of 0.1% (v/v) Triton-X100 was carried out to determine the absorbance associated with 100% hemolysis. […] For THP-1-derived macrophages, viability was determined by Trypan blue staining after incubation with peptide (1–100 μM, final concentrations). LC50 (average concentration of the peptide producing 50% cell lysis) and IC50 values were determined with GraphPad Prism 6.0 software and correspond to the mean obtained from three independent experiments carried out with three (erythrocytes, THP-1 monocytes, HepG2 and HFF cells) or six replicates (THP-1-derived macrophages).
(§6) IC50 or LC50 values were determined for the different human cells mentioned above in the cytotoxicity assays.

C. albicans ATCC 90028 = conditions: ATCC 90028, 96 h
Experimental: as §3, §4

S. aureus ST1065 = conditions: ST1065
Experimental: as §2

P. aeruginosa ATCC 27853 = conditions: ATCC 27853
Experimental: as §1, §2

[3] = test system: C. parapsilosis ATCC 22019; conditions: ATCC 22019, 96 h
Experimental: as §3, §4

K. pneumoniae ATCC 13883 = conditions: ATCC 13883
Experimental: as §2

E. coli ATCC 25922 [4] = conditions: ATCC 25922
Experimental: as §1, §2

Human HepG2 = conditions: MTT, 72 h, 37°C, 50–600 μM; mean of 3 independent experiments in triplicate
Human THP-1 monocytes = conditions: 72 h
S. pyogenes ATCC 19615 = conditions: ATCC 19615
Experimental: as §1, §2

Human erythrocytes = conditions: 1 h
Experimental: as §5, §6

E. coli ATCC 25922 [5] = assay: Multipassage resistance selection; type: cell-based, Escherichia coli; conditions: for fold increase in the MIC against control bacteria at the end of the selection: lineages grown without antimicrobial agent, passage 55
[6] = test system: L. infantum promastigotes; conditions: promastigotes, 96 h
Experimental: L. infantum axenic amastigotes were differentiated from promastigotes in MAA medium (supplemented with 20% FCS) and were grown at 37°C in 5% CO2 [23].
Antiparasitic activity was evaluated against trypanosomatids, such as Leishmania and Trypanosoma. Antileishmanial activity was determined either by a luminescence-based assay (L. infantum, L. major and L. braziliensis) or by cell counting (FACSCalibur flow cytometer, Becton-Dickinson Biosciences, Woburn, MA, USA) after staining with propidium iodide (L. tropica and L. amazonensis), as previously described [23], using promastigotes or axenic amastigotes (1.25 x 10^6 parasites/ml) in mid-log phase and 5-fold serial dilutions of synthetic temporin (50–3.1 μM, final concentrations). […] The half maximal inhibitory concentration (IC50) value was determined with GraphPad Prism 6.0 software (GraphPad Software, La Jolla, CA, USA) using a sigmoidal dose response (variable slope) curve fitting equation. The results are expressed as the means of three independent experiments performed in triplicate (luminescence-based assays) or in duplicate (cell counting-based assays).

Experimental for L. ivanovii: as §1, §2

Molecule | MIC (E. coli ML-35p) [µM] | MIC (S. cerevisiae) [µM] | MIC [1] [µM] | MIC (E. faecalis ATCC 29212) [µM] | MIC (A. baumannii ATCC 19606) [µM] | MIC [2] [µM] | MIC (S. aureus ATCC 25923) [µM] | LC50 (Rat erythrocytes) [µM] | MIC (C. albicans ATCC 90028) [µM] | MIC (S. aureus ST1065) [µM] | MIC (P. aeruginosa ATCC 27853) [µM] | MIC [3] [µM] | MIC (K. pneumoniae ATCC 13883) [µM] | MIC (L. ivanovii) [µM] | MIC (E. coli ATCC 25922 [4]) [µM] | IC50 (Human THP-1 monocytes) [µM] | fold increase in the MIC against control bacteria at the end of the selection (E. coli ATCC 25922 [5]) [fold] | further results
FAKGIAGMAGKLF-NH2 [[A^2,6,9, K^3]SHa, [A^2,6,9, K^3]temporin-SHa] | > 200 | > 200 | > 200 | > 200 | > 200 | > 200 | > 200 | > 200 | > 200 | > 200 | > 200 | > 200 | > 200 | > 200 | > 200 | – | – | –
FASGIAGMAGKLF-NH2 [[A^2,6,9]SHa, [A^2,6,9]temporin-SHa] | > 200 | > 200 | > 200 | > 200 | > 200 | > 200 | > 200 | > 200 | > 200 | > 200 | > 200 | > 200 | > 200 | > 200 | > 200 | > 60 | – | IC50 (Human HepG2): > 600 µM; MIC (S. pyogenes ATCC 19615): > 200 µM; LC50 (Human erythrocytes): > 100 µM
CC1(C)S[C@@H]2[C@H](NC(=O)[C@H](N)c3ccccc3)C(=O)N2[C@H]1C(=O)O [ampicillin] | – | – | – | – | – | – | – | – | – | – | – | – | – | – | – | – | 4 | MIC (E. coli ATCC 25922 [5]; Escherichia coli, ATCC25922, read-out: MIC (initial, before selection)): 12.5 µM (≈ 4.37 µg/mL); fold increase in the MIC against adapted E. coli lineages (E. coli ATCC 25922 [5]; lineages adapted from MIC/16 to MIC, 55 passages): 6 fold
D-temporin-SHa [D-SHa] | – | – | – | – | – | – | – | – | – | – | – | – | – | – | – | – | ~2 | –
GLWSKIKEVGKEAAKAAAKAAGKAALGAVSEAV-NH2 (C-terminus assumed) [dermaseptin B2, reference compound] | – | – | – | – | – | – | – | – | – | – | – | – | – | – | – | ~7 | – | IC50 [6]: 2.5 µM
